Data from patent publication US20080293587A1, “Method of Screening a Biological Target for Weak Interactions Using Weak Affinity Chromatography” (Transientic Interactions AB, priority 2005, published 2008).

Target: bovine serum albumin (BSA) (Bos taurus, UniProt P02769)
Conditions: bupivacain 1 mM; for retardation in zonal weak affinity chromatography in a well (peak apex): immobilized BSA, mobile phase 0.05 M sodium phosphate buffer pH 7.0, 20° C., UV 230 nm, propranolol 0.25 mM, sodium azide 0.5 mM
Description: 200 mg of reference gel (diol-silica) and assay gel (BSA-diol-silica) were suspended in 1 ml methanol and packed into each well in a 96-well filtering system (Captiva® 96-well 10μ glassfiber filter plate from Ansys Technologies (Company), see FIG. 1) using vacuum applied to the wells. The gel in the wells was first washed with 5 ml MeOH and then with 5 ml 0.1 M sodium phosphate buffer pH 7.0. Filter discs were placed on top of the gel material in each well.
Wells containing gel materials were washed carefully with 0.05 M sodium phosphate buffer pH 7.0 using vacuum collar to remove non-bound BSA, contaminants and entrapped air. The excess of buffer was gently removed from the surface of the wells using pipette and 10 μl of test substances were injected centrally in each wells which were then flushed with mobile phase (0.05 M sodium phosphate buffer pH 7.0). Vacuum was applied to the collar and the mobile phase was flowed into a 96 well collection plate (Nunclon, Nalgene-Nunc) within 8-10 seconds. Vacuum was then reduced and the collection plate (approximately 0.2 ml in each well) was replaced with a new one. This fraction collection process was repeated with 20-75 plates. During this procedure the wells were eluted with mobile phase continuously. […] The eluates in the plates were transferred carefully by automatic pipettes and weighed to estimate the retention volume. All procedures were performed at room temperature (20° C.). Eluted substances were detected by UV-scans at 230 nm. Chromatograms were obtained by plotting UV absorbance versus fraction volume.

Chain of bovine serum albumin (BSA) (P02769 25-607): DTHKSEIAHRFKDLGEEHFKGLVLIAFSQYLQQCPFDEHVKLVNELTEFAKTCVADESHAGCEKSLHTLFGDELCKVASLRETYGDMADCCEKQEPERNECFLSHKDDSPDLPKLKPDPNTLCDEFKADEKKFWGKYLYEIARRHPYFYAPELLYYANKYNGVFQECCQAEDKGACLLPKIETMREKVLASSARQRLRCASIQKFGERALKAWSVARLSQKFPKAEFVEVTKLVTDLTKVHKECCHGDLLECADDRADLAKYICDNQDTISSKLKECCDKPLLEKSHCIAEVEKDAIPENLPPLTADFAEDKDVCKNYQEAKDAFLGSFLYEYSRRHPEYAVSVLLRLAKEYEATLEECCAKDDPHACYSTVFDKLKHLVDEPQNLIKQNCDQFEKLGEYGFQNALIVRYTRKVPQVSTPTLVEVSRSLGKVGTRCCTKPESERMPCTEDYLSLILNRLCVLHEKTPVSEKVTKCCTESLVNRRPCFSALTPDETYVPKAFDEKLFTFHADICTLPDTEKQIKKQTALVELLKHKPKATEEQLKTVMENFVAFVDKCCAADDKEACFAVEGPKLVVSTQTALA

| Compound | well-to-well reproducibility of retardation in zonal weak affinity chromatography (three different wells, chromatography repeated once in each well) | retardation in zonal weak affinity chromatography in a well (peak apex) |
| --- | --- | --- |
| CCCCN1CCCCC1C(=O)Nc1c(C)cccc1C (stereo not drawn) [Bupivacain] | retarded | retarded |
| CC(C)NCC(O)COc1cccc2ccccc12 (stereo not drawn) [propranolol] |  | retarded |
